From patent US4755594A, “N^6 -substituted adenosines” (Warner-Lambert Company, priority 1986, dated 1988)

Experiments:
[1] = target: T1, adenosine A1 receptor (Rattus norvegicus, UniProt P25099); test: Adenosine Receptor Binding--A1 Receptor Affinity (RBA1), [3H]-CHA, whole brain membranes; settings: read-out: RBA-1 IC50
T1 construct: Whole brain minus cerebellum and brainstem from male Long-Evans rats; from tissue; host or cells: whole brain minus cerebellum and brainstem, male Long-Evans rats
T1 sequence (P25099 1-326): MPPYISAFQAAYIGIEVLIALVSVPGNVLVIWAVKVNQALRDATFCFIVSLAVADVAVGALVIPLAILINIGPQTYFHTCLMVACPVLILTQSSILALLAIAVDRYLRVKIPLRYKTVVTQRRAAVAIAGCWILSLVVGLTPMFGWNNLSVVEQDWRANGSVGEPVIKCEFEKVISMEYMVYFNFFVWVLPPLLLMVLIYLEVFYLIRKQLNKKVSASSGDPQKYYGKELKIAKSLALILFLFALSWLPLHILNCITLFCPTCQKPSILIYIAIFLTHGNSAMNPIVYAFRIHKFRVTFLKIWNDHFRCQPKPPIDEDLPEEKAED
Method: Adenosine Receptor Binding--A1 Receptor Affinity (RBA1 )
Whole brain minus cerebellum and brainstem from male Long-Evans rats (150-200 g) was homogenized in 30 volumes of ice-cold 0.05M Tris-HCl buffer pH 7.7 using a Brinkman Polytron PT-10, (setting number 6 for 20 seconds) and centrifuged for ten minutes at 20,000 xg (Sorvall RC-2), 4° C. The supernatant was discarded, and the pellet was resuspended and centrifuged as before. The pellet was resuspended in 20 ml Tris-HCl buffer containing two International Units/ml of adenosine deaminase (Sigma type III from calf intestinal mucosa), incubated at 37° C. for 30 minutes, then subsequently at 0° C. for ten minutes. The homogenate was again centrifuged, and the final pellet was resuspended in ice-cold 0.05M Tris-HCl buffer pH 7.7 to a concentration of 20 mg/ml original wet tissue weight and used immediately.
Tissue homogenate (10 mg/ml) was incubated in 0.05M Tris-HCl buffer pH 7.7 containing 1.0 nM [^3 H]--N^6 -cyclohexyladenosine ([^3 H]--CHA) with or without test agents in triplicate for one hour at 25° C. Incubation volume was 2 ml. Unbound [^3 H]--CHA was separated by rapid filtration under reduced pressure through Whatman glass fiber (GF/B) filters. The filters were rinsed three times with 5 ml of ice cold 0.05M Tris-HCl buffer pH 7.7. The radio-labeled ligand retained on the filter was measured by liquid scintillation spectrophotometry after shaking the filters for one hour or longer on a mechanical shaker in 10 ml of Beckman Ready-Solv HP scintillation cocktail.
Nonspecific binding was defined as the binding which occurred in the presence of 1 mM theophylline. The concentration of test agent which inhibited 50% of the specific binding (IC50) was determined by nonlinear computer curve fit. The Scatchard plot was calculated by linear regression of the line obtained by plotting the amount of radioligand bound (pmoles/gram of tissue) [formula] Since the amount of radioligand bound was a small fraction of the total amount added, free radioligand was defined as the concentration of (nM) of radioligand added to the incubation mixture. The Hill coefficient was calculated by linear regression of the line obtained by plotting the log of the bound radioligand vs the log of the [formula] The maximal number of binding sites (Bmax) was calculated from the Scatchard plot.

[2] = Mouse Activity and Screen Test Procedure (MAST): screen test; type: in vivo, Swiss-Webster male mice; settings: IP
From the text: (§1) The compounds of the invention are new chemical substances which are useful as pharmaceutical agents for the treatment of psychoses. The antipsychotic activity of representative compounds of the invention was established by the Mouse Activity and Screen Test Procedure (MAST) described below. Animals Nine unfasted Swiss-Webster male mice weighing 20-30 g are equally divided into three groups for each drug dose to be tested. That is, data for each dose level was generated by three separate groups of three mice each. Drugs A minimum of three dose levels (10, 30, and 100 mg/kg) are tested for each drug. Treatments are administered intraperitoneally one hour prior to testing. All dosages are calculated as parent compound and given in volumes of 10 ml/kg. Compounds are dissolved or suspended in 0.2% Methocel. Control animals are injected with Methocel. Testing A two part testing procedure is started one hour postinjection. First, the screen test (ST) is performed (see Pharmac. Biochem. Behav. 6, 351-353, 1977). Briefly this test consists of placing mice on individual wire screens which are then rotated 180 degrees at the start of a 60 second observation period. The number of mice falling off the inverted screen is recorded. Data The data obtained from the screen test are expressed as percent of mice falling off the screen. Data derived from locomotor activity of drug treated mice are compared to the activity of vehicle treated animals and are expressed as percent inhibition of spontaneous locomotion. All percentages reported for inhibition of locomotion (LI) are based upon data accumulated for one hour. Both phases of testing are graded: A=60-100%; C=31-59%; and N=0-30%. An overall dose rating is obtained by the following criteria: […]

[3] = Mouse Activity and Screen Test Procedure (MAST): inhibition of spontaneous locomotion; type: in vivo, Swiss-Webster male mice; settings: IP, 1 h, read-out: Inhibition of motor activity
From the text: as §1, with “recorded. Immediately following the screen test, the final phase of testing is initiated by placing each group of three mice in one actophotometer (Life Sciences, 22, 1067-1076, 1978). The actophotometer consists of a cylindrical chamber whose center is occupied by another cylinder which contains the illumination for six photocells located on the perimeter of the chamber. Six light-beam interruptions equal one count. Locomotor activity is recorded by computer at ten minute intervals for 60 minutes.” for “recorded.”

SMILES	IC50 [1] [nM]	Inhibition of screen test failure ([2]; 3 mg/kg) [%]	Inhibition of screen test failure ([2]; 10 mg/kg) [%]	Inhibition of screen test failure ([2]; 30 mg/kg) [%]	inhibition in vivo at 3 mg/kg [3] [%]	inhibition in vivo at 10 mg/kg [3] [%]	inhibition in vivo at 30 mg/kg [3] [%]
OC[C@H]1O[C@@H](n2cnc3c(NCC4(c5cccc(Cl)c5)CC4)ncnc32)[C@H](O)[C@@H]1O [Example 2, N6-((1-(3-Chlorophenyl)cyclopropyl)methyl)adenosine]	32	11	0	0	19	69	90
O[C@@H]1[C@H](O)[C@@H](CCl)O[C@H]1n1cnc2c(NCC3(c4ccccc4)CC3)ncnc21 [Example 5, 5'-Deoxy-5'-chloro-N6-((1-phenylcyclopropyl)methyl)adenosine]	52	11	0	0	16	10	-4
OC[C@H]1O[C@@H](n2cnc3c(NCC4(c5cccc(Cl)c5)CCC4)ncnc32)[C@H](O)[C@@H]1O [Example 8, N6-((1-(3-Chlorophenyl)cyclobutyl)methyl)adenosine]	31	0	0	0	22	35	73
